Consider 4 molecules from US20220265591A1, “USE OF AN OSMOLYTE IN MANUFACTURE OF A MEDICAMENT FOR TREATMENT OF OCULAR DISORDERS” (SINGAPORE HEALTH SERVICES PTELTD, priority 2019, published 2022).

Like-named read-outs stand apart in the source and are kept apart here.

In experiment [1] the target is T1, TGFBIp611-633 G623R peptide (Homo sapiens, UniProt Q15582, G623R).
T1 construct: The 23-amino acid long peptide (TGFBIp 611-633 c.623 G>R) from the 4th FAS1 domain; purchased Synpeptide Co Ltd, Shanghai, China; host or cells: synthetic peptide
The experiment can be described thus: ThT fluorescence assay, inhibition of amyloid fibrillation. Type of experiment: biochemical. The note with it: for inhibition at 200000 µM: 200 mM. Here is the method: The 23-amino acid long peptide (TGFBIp 611-633 c.623 G>R) from the 4th FAS1 domain of TGFBIp with the substitution, G623→R ([…]) that rapidly formed amyloid fibrils was used in this study. The peptide was dissolved (0.6 mg/ml) in PBS and allowed to form amyloid fibrils in 50 ml Falcon tubes in a shaking incubator at 37° C. and 180 rpm with and without the addition of osmolytes. […] The TGFBIp^611-633 G623R peptide incubated with PBS was used as a control.
The peptide samples collected at various time points above were treated with 30 μM Thioflavin T (ThT) (Sigma-Aldrich Inc., MO, USA) in PBS buffer at pH 5.5 in a 96-well microplate (Greiner Bio-One, Frickenhausen, Germany) for ThT fluorescence assay. The microplate was excited at 445 nm and the resulting emission fluorescence at 485 nm was measured using a microplate reader (Tecan Infinite M200 Pro, CA, USA).
Percentage inhibition for each osmolyte treatment was calculated by subtracting the baseline fluorescent intensity without the peptides and compounds from the observed fluorescent intensity of each treatment well. The fluorescent intensities per osmolyte treatment were normalized against the untreated fluorescent intensity per time point and expressed as a percentage.
The TGFBIp^611-633 G623R peptides were treated with 200 mM and 320 mM of taurine for up to 72 hours, respectively, the results of which are illustrated in FIG. 11. The TGFBIp^611-633 N622K peptides were treated with 200 mM and 320 mM of taurine for up to 240 hours, respectively, the results of which are illustrated in FIG. 12. The peptides incubated with PBS were used as controls.
The peptide samples were collected at 24 h, 48 h and 72 h after treatment for TGFBIp^611-633 G623R peptides and at 120 h, 144 h and […] after treatment for the TGFBIp^611-633 N622K peptides. The samples were then treated with 30 μM ThT in PBS buffer at pH 5.5 in a 96-well microplate for ThT fluorescence assay. The microplate was excited at 445 nm and the resulting emission fluorescence at 485 nm was measured using a microplate reader.

Experiment [2] deals with T2, preformed amyloid fibrils from TGFBIp611-633 G623R peptide (Homo sapiens, UniProt Q15582, G623R).
T2 construct: The 23-amino acid long peptide (TGFBIp 611-633 c.623 G>R) from the 4th FAS1 domain; purchased Synpeptide Co Ltd, Shanghai, China; host or cells: synthetic peptide
Briefly: ThT fluorescence assay, dissolution of preformed amyloid fibrils. Format: biochemical. To be noted: for inhibition at 200000 µM: preformed fibrils, read-out: % Inhibition (mean ± SD) n = 3, dissolution of amyloid fibrils, ThT fluorescence; for % Dissolution at final time point, ThT: TGFBIp-G623R preformed fibrils. The protocol:
The TGFBIp^611-633 G623R peptides were incubated in PBS for 24 hours, allowed to form uniform amyloid fibrils. The TGFBIp^611-633 G623R peptide solution was then subjected to Circular Dichroism spectroscopy to confirm the formation of amyloid fibrils.
The preformed amyloid fibril solution incubated with PBS was used as a control.
The peptide samples collected at the various time points above were treated with 30 μM ThT in PBS buffer at pH 5.5 in a 96-well microplate for ThT fluorescence assay. The microplate was excited at […] and the resulting emission fluorescence at 485 nm was measured using a microplate reader (Tecan Infinite M200 Pro, CA, USA).
The preformed amyloid fibrils were treated with taurine at a concentration of 200 mM and 320 mM for up to 72 hours, respectively. The preformed amyloid fibrils incubated with PBS were used as controls.
The samples were collected at 24 h, 48 h and 72 h after treatment for the TGFBIp^611-633 G623R peptides, and at 24 h, 48 h, 96 h and 144 h after treatment for the TGFBIp^611-633 N622K peptides. The samples were then treated with 30 μM ThT in PBS buffer at pH 5.5 in a 96-well microplate for ThT fluorescence assay. The microplate was excited at 445 nm and the resulting emission fluorescence at 485 nm was measured using a microplate reader.

In experiment [3] the target is T3, TGFBIp 611-633 c.623 G>R fibrils (Homo sapiens, UniProt Q15582, G623R).
T3 construct: The 23-amino acid long peptide (TGFBIp 611-633 c.623 G>R) from the 4th FAS1 domain; purchased Synpeptide Co Ltd, Shanghai, China; host or cells: synthetic peptide
Briefly: Transmission Electron Microscopy of preformed fibrils. To be noted: 72 hours treatment. Here is the method:
The disaggregation of preformed amyloid fibrils was also verified by TEM analysis as illustrated in FIG. 8B. Morphological analysis of the TGFBIp 611-633 c.623 G>R fibrils before and after treatment with osmolytes for 72 hours was investigated by Transmission electron microscopy (TEM) with a JEOL JEM-1010 transmission electron microscope using Digital Micrograph™ 1.81.78 for GMS 1.8.0 (Gatan, Pleasanton, Calif.) at the Singhealth-core Electron Microscopy facility. 10 μl of amyloid fibril samples with and without osmolyte treatment were applied onto Formvar-carbon coated 300-mesh-size nickel grids. The samples were stained with Uranyl acetate solution, washed, dried, and observed at magnifications 8000-50000× at 80 kV.

The mark [4] stands for this setting: 24 h, read-out: % Inhibition (mean ± SD) n = 3, ThT fluorescence.
Setting [5] is: 48 h, read-out: % Inhibition (mean ± SD) n = 3, ThT fluorescence.
[6] abbreviates: 72 h, read-out: % Inhibition (mean ± SD) n = 3, ThT fluorescence.
[7] abbreviates: TGFBIp-G623R, 320 mM, final time point.

As usually defined, the inhibition is the percentage by which the read-out fell short of the control. What is called % Inhibition is the drop in the measured response relative to a control, in per cent. Low values mean little suppression, high ones strong suppression.

T1 sequence (Q15582 611-633 G623R limits assumed): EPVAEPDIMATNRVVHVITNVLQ

For the molecule `C[N+](C)(C)CC(=O)O` [Betaine, betaine], the inhibition at 200000 µM in experiment [1] (setting [4]) was determined as 16 ± 3%; in experiment [1] (setting [5]) it was 26 ± 3%; in experiment [1] (setting [6]) it was 44%; in experiment [2] (200 mM, 24 h), 4 ± 3%; in experiment [2] (200 mM, 48 h), 34 ± 11%; in experiment [2] (200 mM, 72 h), 37 ± 17%. Further, the “TEM morphology of fibrils” value in experiment [3] was “reduction in density of ordered amyloid fibrils was evident”.

Turning to `OC[C@H]1O[C@H](OC[C@H]2O[C@H](O[C@]3(CO)O[C@H](CO)[C@@H](O)[C@@H]3O)[C@H](O)[C@@H](O)[C@@H]2O)[C@H](O)[C@@H](O)[C@H]1O` [Raffinose, raffinose], the inhibition at 200000 µM in experiment [1] (setting [4]) was found to be 21 ± 6%; in experiment [1] (setting [5]) it was 32 ± 2%; in experiment [1] (setting [6]), 65%; in experiment [2] (200 mM, 24 h), 14 ± 4%; in experiment [2] (200 mM, 48 h), 48 ± 6%; in experiment [2] (200 mM, 72 h), 64%. The “TEM morphology of fibrils” value in experiment [3] was “reduction in density of ordered amyloid fibrils was evident”.

As for `CNCC(=O)O` [Sarcosine, sarcosine], the inhibition at 200000 µM in experiment [1] (setting [4]) was 20 ± 3%; in experiment [1] (setting [5]), 32 ± 2%; in experiment [1] (setting [6]) it was 56%; in experiment [2] (200 mM, 24 h), 24 ± 3%; in experiment [2] (200 mM, 48 h), 47 ± 4%; in experiment [2] (200 mM, 72 h), 53 ± 3%. Moreover, the “TEM morphology of fibrils” value in experiment [3] is listed as “reduction in density of ordered amyloid fibrils was evident”.

Turning to `NCCS(=O)(=O)O` [Taurine, taurine], the inhibition at 200000 µM was 20 ± 6% in experiment [1] (setting [4]); 34 ± 5% in experiment [1] (setting [5]); 48% in experiment [1] (setting [6]); 41% in experiment [1] (TGFBIp-G623R, final time point, read-out: % Inhibition at final time point, ThT); 23 ± 1% in experiment [2] (200 mM, 24 h); 52 ± 5% in experiment [2] (200 mM, 48 h). Besides, the inhibition at 200000 µM in experiment [2] (200 mM, 72 h) stood at 61%. Besides, in experiment [1] (setting [7]), the “% Inhibition at final time point, ThT” value is on record as 60%. In experiment [1] (setting [7]), this molecule showed an inhibition at 320000 µM of 61%. Besides, the “% Dissolution at final time point, ThT” value was 63% in experiment [2] (200 mM); 64% in experiment [2] (200 mM, listed as taurine); 83% in experiment [2] (320 mM); 83% in experiment [2] (320 mM, listed as taurine). Further, the “TEM morphology of fibrils” value in experiment [3] was “reduction in density of ordered amyloid fibrils was evident”.
